Measured values reported in US5622933A, “Multiple branch peptide constructions for use against HIV” (priority 1993, dated 1997).
Entries after “also recorded” stand apart in the source; their conditions may differ. Ends that are not written are not given here.

Tests used:
[1] = system: HIV-2; assay: Infection of human PBLs; type: cell-based; settings: MBPC 10^-5 M
Procedure: Peripheral blood lymphocytes (PBLs) were obtained from healthy donors, stimulated with phytohemagglutinin, and cultivated in RPMI 1640 containing 10% fetal calf serum and interleukin-2 (complete medium). Samples of 6×10^6 cells/ml were either treated or not treated with the indicated MBPC at a concentration of 10^-5 M and exposed to HIV-1 or HIV-2 (100 TCID50) for 1 hour at 37° C. in the continued presence of MBPCs. After thorough washing, PBLs were cultured in complete medium with 10^-5 M of the corresponding MBPC. The state of infection was assessed by determination of RT activity (for both HIV-1 and HIV-2 isolates) and HIV-1 p24^gag measurements (Coulter kit, cut-off 10 pg/ml) in the case of HIV-1 isolates 10 days post-infection. The MBPC treatment used were as follows: 1-none; 2- [GPGRAF]8 -MLC; 3-[[…]]4 -MLC; 4- [[…]]4 -MLC (a non-HIV related MBPC) (MLC indicates a core lysine structure). The results shown in FIGS. 2A-2C are representative of three separate experiments. The nature of the viral isolates used was checked by PCR (HIV-1 versus HIV-2 isolates) and RIPA for discriminating between HIV-1 (LAI) and HIV-1 (NDK).

[2] = system: 8E5 cells; assay: Toxicity in the cell fusion test (MTT assay or trypan blue exclusion); type: cell-based; settings: 5 × 10^-5 M; listed as [RKSIHIGPGRAFYT]4 -MLC
[3] = system: CEM or C8166 cells; settings: concentrations of 10^-7 to 10^-4 M; cultured continuously (15 days)
Procedure: An MTT assay, a colorimetric cell viability assay using 3-[4,5-Dimethylthiazol-2-yl] 2,5-diphenyltetrazolium bromide, was used to assess the effect of MBPCs on cell viability. CEM or C8166 cells (5×10^4) were cultured continuously (15 days) in the presence of various concentrations of MBPCs in the wells of 96-well microtiter plates in 200 μl final volume of RPMI 1640 medium supplemented with 5% fetal calf serum, 1% glutamine, 1% streptomycin-penicillin (available from Gibco of Irvine, Scotland) in a humidified atmosphere with 5% CO2. Every 3 to 4 days, an MTT assay was performed on 100 μl of cells suspension and MBPC were added to cell culture and the volume completed to 200 μl.

[4] = system: HIV; assay: Infection of HT-29 human colon cells through the GalCer receptor; type: cell-based
Procedure: The activity of MBPCs was evaluated on this alternative infection route as follows: HT-29 cells (5×10^5 cells) were incubated with MBPCs (5×10^-6 M) for 45 minutes and subsequently exposed to 100 TCID50 of HIV-1 (LAI), HIV-1 (NDK) or HIV-2 (ROD) for 1 hour at 37° C. The residual inoculum was inactivated by three successive trypsinations and infection was assessed by: i) direct measurement of HIV-1 p24^gag (for HIV-1 isolates) and RT activity (for HIV-1 and HIV-2 isolates) in the culture supernatants; ii) co-cultivation with human PBLs. The cells were treated with the MBPCs as follows: 1- none; 2- [GPGRAF]8 -MLC; 3- [GPGRAF]8 -MLCD; 4- [GPG(R)DAF]8 -MLC; 5- [GPGRAF]16 -MLC; 6- [[…]]4 -MLC; and 7- [[…]]4 -MLC, with all amino acids in L form unless noted otherwise. The results shown in FIG. 5A, which correspond to infection with HIV-1 (NDK), are representative of three separate experiments and the MBPC used is indicated by the number on the x-axis. The concentration of p24^gag (pg/ml) was measured during the co-culture experiment with PBLs (+++, >10 ng/ml 10 days post-infection; ++, >1 ng/ml 13 days post-infection; +, >1 ng/ml 16 days post-infection; -, no detectable p24^gag 1 month post-infection). Similar results were obtained with HIV-1 (LAI) and HIV-2 (ROD).

[5] = system: HIV-1 (NDK); assay: Fusion between chronically infected CEM cells and MT-2 cells; type: cell-based; settings: separate tests

Row | Substance | potency for inhibition of HIV-2 infection, in words [1] | Toxicity [2] | toxicity to cells (MTT assay) [3] | block of the infectivity of HIV on human colon cells [4] | block of fusion [5]
1 | (RKSIHIGPGRAFYT)4 -(K)2 -K-βA-OH (also: four copies on lysine core (K)2-K-βA-OH) [MBPC.5, tetradecapeptide MBPC] | less potent than [GPGRAF]8 -MLC | Toxic; also recorded: induced some toxicity |  |  | 
2 | (GPGRAF)8 -(K)4 -(K)2 -K-βA-OH [MBPC.3] |  |  | not toxic | completely block | able to block the fusion
